Measured values from ChEMBL document CHEMBL1151886, “Synthesis and SAR of hydroxyethylamine based phenylcarboxyamides as inhibitors of BACE” (Bioorg Med Chem Lett, 2009).
pIC50: −log10 of the molar value.

How the values were obtained:
Beta-secretase 1 [1] = biological target: T1, Beta-secretase 1 (Homo sapiens, UniProt P56817); assay: Inhibition of BACE1 in human HEK293 cells overexpressing APP with Swedish mutation assessed as inhibition of amyloid beta 40 production; format: cell-based; conditions: read-out: IC50
T1 sequence (P56817 whole entry): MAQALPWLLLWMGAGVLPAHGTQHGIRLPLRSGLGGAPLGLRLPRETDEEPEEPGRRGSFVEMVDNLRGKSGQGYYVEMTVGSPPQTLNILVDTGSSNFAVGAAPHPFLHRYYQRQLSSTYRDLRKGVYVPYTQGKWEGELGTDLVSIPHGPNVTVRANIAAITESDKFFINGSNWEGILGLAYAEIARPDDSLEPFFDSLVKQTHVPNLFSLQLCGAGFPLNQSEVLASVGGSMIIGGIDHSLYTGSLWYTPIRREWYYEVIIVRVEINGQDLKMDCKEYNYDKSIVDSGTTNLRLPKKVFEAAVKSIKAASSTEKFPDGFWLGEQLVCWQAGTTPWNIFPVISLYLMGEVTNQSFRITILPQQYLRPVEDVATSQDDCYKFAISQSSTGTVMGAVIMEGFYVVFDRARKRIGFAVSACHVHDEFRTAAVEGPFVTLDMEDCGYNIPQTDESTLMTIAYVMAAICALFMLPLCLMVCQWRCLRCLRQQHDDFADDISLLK

Beta-secretase 1 [2] = biological target: T1, Beta-secretase 1; assay: Binding affinity to BACE assessed as displacement of [3H]BMS-599240; conditions: read-out: IC50

pIC50 (Beta-secretase 1 [1]) | pIC50 (Beta-secretase 1 [2]) | SMILES
7.52 | 7.57 | CCCN(CCC)C(=O)c1cc(Sc2ccc(OC)cc2)cc(C(=O)N[C@@H](Cc2cc(F)cc(F)c2)[C@H](O)CNCc2cccc(OC)c2)c1
6.83 | 7.96 | CCCN(CCC)C(=O)c1cc(C(=O)N[C@@H](Cc2cc(F)cc(F)c2)[C@H](O)CNCc2cccc(OC)c2)cc(S(=O)(=O)c2ccccc2)c1
6.41 | 7.92 | CCCN(CCC)C(=O)c1cc(C(=O)N[C@@H](Cc2cc(F)cc(F)c2)[C@H](O)CNCc2cccc(OC)c2)cc(S(=O)(=O)c2ccc(OC)cc2)c1
